Like-named read-outs stand apart in the source and are kept apart here. Starred links: 1 amine or outer side, 2 acyl side, 3 side chain; linkers in the order of their positions; H or OH if unused. Non-standard residues stand in square brackets, D forms with d. Residues, ends and D or L forms follow the SMILES beside them. Groups on a side chain read outwards from the residue. *: point of attachment. C20 diacid = O=C(O)CCCCCCCCCCCCCCCCCCC(=O)*; γGlu = O=C(O)[C@H](CCC(=O)[*:2])N[*:1]; NMeI = CC[C@H](C)[C@H](NC)C(=O)O; Nle = CCCC[C@H](N)C(=O)O; AEEA = NCCOCCOCC(=O)O; Aib = CC(C)(N)C(=O)O
Key:
hCRHR1 = target: T1, hCRHR1 (Homo sapiens, UniProt P34998); experiment: HTRF cAMP assay, determination of hCRHR1 potency (peptide libraries 5 conc., purified peptides 11 conc.); assay type: cell-based
T1 sequence (P34998 24-415): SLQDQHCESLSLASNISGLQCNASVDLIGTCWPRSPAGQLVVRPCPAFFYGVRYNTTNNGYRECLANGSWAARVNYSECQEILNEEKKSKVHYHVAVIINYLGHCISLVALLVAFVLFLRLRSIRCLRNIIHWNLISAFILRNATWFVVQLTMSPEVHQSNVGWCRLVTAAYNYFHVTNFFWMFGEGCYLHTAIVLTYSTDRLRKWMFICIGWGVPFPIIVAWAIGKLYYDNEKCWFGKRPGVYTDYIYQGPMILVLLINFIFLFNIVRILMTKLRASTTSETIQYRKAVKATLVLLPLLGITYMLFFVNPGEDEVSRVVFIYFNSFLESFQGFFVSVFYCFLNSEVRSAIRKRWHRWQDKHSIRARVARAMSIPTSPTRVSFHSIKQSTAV
Summary of the method: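 CHO-K1 cells stably expressing human CRHR1, thawed from frozen stocks just before use, were stimulated in suspension with agonist peptides. cAMP was measured by HTRF competitive immunoassay (cryptate anti-cAMP antibody vs d2-cAMP).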

hCRHR2 = target: T2, hCRHR2 (Homo sapiens, UniProt Q13324); experiment: HTRF cAMP assay, determination of hCRHR2 potency (peptide libraries 5 conc., purified peptides 11 conc.); assay type: cell-based
T2 sequence (Q13324 1-411): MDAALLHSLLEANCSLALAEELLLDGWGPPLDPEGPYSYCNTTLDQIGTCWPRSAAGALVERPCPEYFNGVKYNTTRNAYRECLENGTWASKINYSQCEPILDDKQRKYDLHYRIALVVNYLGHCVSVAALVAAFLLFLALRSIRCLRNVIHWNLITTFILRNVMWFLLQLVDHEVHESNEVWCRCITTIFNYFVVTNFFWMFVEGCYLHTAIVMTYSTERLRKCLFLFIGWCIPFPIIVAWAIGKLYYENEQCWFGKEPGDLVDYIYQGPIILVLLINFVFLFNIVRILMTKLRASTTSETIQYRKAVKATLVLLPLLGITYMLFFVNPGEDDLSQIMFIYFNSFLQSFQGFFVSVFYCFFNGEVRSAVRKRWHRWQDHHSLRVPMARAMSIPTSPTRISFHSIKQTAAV
Summary of the method: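 Potency was read as cAMP accumulation in a stable CHO-K1 line expressing human CRHR2, used in suspension right after thawing. Detection relied on energy transfer from antibody-bound cryptate to d2-cAMP.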

[1] = Table 3, matched molecular pairs X^38 L vs Nle, peptide library of Example 4, read-out: hCRHR1 pEC50 (converted)
[2] = Table 3, matched molecular pairs X^38 L vs Nle, peptide library of Example 4, read-out: hCRHR2 pEC50 (converted)

Row | EC50 (hCRHR1; [1]) [nM] | EC50 (hCRHR2; [2]) [nM] | Structure (SMILES) | other results
1 | 5010 | 0.158 | CCCC[C@H](NC(=O)[C@@H](NC(=O)[C@H](CCC(=O)O)NC(=O)[C@H](C)NC(=O)[C@H](CC(N)=O)NC(=O)[C@@H](NC(=O)[C@H](CCCCNC(=O)COCCOCCNC(=O)COCCOCCNC(=O)CC[C@H](NC(=O)CC[C@H](NC(=O)CCCCCCCCCCCCCCCCCCC(=O)O)C(=O)O)C(=O)O)NC(=O)[C@H](C)NC(=O)[C@H](CCCNC(=N)N)NC(=O)[C@H](CCC(=O)O)NC(=O)[C@H](CCCNC(=N)N)NC(=O)[C@H](C)NC(=O)[C@H](CO)NC(=O)[C@H](CCC(=O)O)NC(=O)[C@H](C)NC(=O)[C@H](CCCNC(=N)N)NC(=O)[C@H](C)NC(=O)[C@H](CCC(N)=O)NC(=O)[C@H](CCC(=O)O)NC(=O)[C@H](CC(C)C)NC(=O)[C@H](CC(C)C)NC(=O)[C@@H](NC(=O)[C@H](CCC(N)=O)NC(=O)[C@H](CC(C)C)NC(=O)[C@H](CC(C)C)NC(=O)CNC(=O)[C@@H](NC(=O)[C@@H]1CCCN1C(=O)[C@@H](NC(=O)[C@H](CC(=O)O)NC(=O)[C@H](CC(C)C)NC(=O)[C@H](CO)NC(=O)[C@H](CC(C)C)NC(=O)[C@@H](NC(=O)[C@@H](N)[C@@H](C)CC)C(C)C)C(C)C)[C@@H](C)CC)[C@@H](C)CC)[C@@H](C)O)[C@@H](C)CC)C(=O)N[C@@H](C)C(=O)N[C@@H](CCC(=O)O)C(=O)N[C@H](C(N)=O)[C@@H](C)CC [SEQ ID NO: 22] (H-IVLSLDVPIGLLQILLEQARAESARERAK([AEEA-AEEA-γGlu-γGlu-C20 diacid])TNAEI[Nle]AEI-NH2) | 
2 | 63100 | 0.398 | CCCC[C@H](NC(=O)[C@@H](NC(=O)[C@H](CCC(=O)O)NC(=O)[C@H](C)NC(=O)[C@H](CC(N)=O)NC(=O)[C@@H](NC(=O)[C@H](CCCCNC(=O)COCCOCCNC(=O)COCCOCCNC(=O)CC[C@H](NC(=O)CC[C@H](NC(=O)CCCCCCCCCCCCCCCCCCC(=O)O)C(=O)O)C(=O)O)NC(=O)[C@H](C)NC(=O)[C@H](CCC(=O)O)NC(=O)[C@H](CCC(N)=O)NC(=O)[C@H](CCCNC(=N)N)NC(=O)[C@H](CC(C)C)NC(=O)[C@H](C)NC(=O)[C@H](CCCNC(=N)N)NC(=O)[C@H](C)NC(=O)[C@H](CCCNC(=N)N)NC(=O)[C@H](C)NC(=O)[C@H](CCC(N)=O)NC(=O)[C@H](CCC(=O)O)NC(=O)[C@H](CC(C)C)NC(=O)[C@H](CC(C)C)NC(=O)[C@@H](NC(=O)[C@H](CCC(N)=O)NC(=O)[C@H](CC(C)C)NC(=O)[C@H](CC(C)C)NC(=O)CNC(=O)[C@@H](NC(=O)[C@@H]1CCCN1C(=O)[C@@H](NC(=O)[C@H](CC(=O)O)NC(=O)[C@H](CC(C)C)NC(=O)[C@H](CO)NC(=O)[C@H](CC(C)C)NC(=O)[C@@H](NC(=O)[C@@H](N)[C@@H](C)CC)C(C)C)C(C)C)[C@@H](C)CC)[C@@H](C)CC)[C@@H](C)O)[C@@H](C)CC)C(=O)N[C@@H](C)C(=O)N[C@@H](CCC(=O)O)C(=O)N[C@H](C(N)=O)C(C)C [SEQ ID NO: 38] (H-IVLSLDVPIGLLQILLEQARARALRQEAK([AEEA-AEEA-γGlu-γGlu-C20 diacid])TNAEI[Nle]AEV-NH2) | 
3 |  |  | CCCC[C@H](NC(=O)[C@@H](NC(=O)[C@H](CCC(=O)O)NC(=O)[C@H](C)NC(=O)[C@H](CC(N)=O)NC(=O)[C@@H](NC(=O)[C@H](CCCCNC(=O)COCCOCCNC(=O)COCCOCCNC(=O)CC[C@H](NC(=O)CC[C@H](NC(=O)CCCCCCCCCCCCCCCCCCC(=O)O)C(=O)O)C(=O)O)NC(=O)[C@H](C)NC(=O)[C@H](CCC(N)=O)NC(=O)[C@H](CCC(N)=O)NC(=O)[C@H](CCCNC(=N)N)NC(=O)[C@H](C)NC(=O)[C@H](C)NC(=O)[C@H](CCC(N)=O)NC(=O)[C@H](C)NC(=O)[C@H](CCCNC(=N)N)NC(=O)[C@H](C)NC(=O)[C@H](CCC(N)=O)NC(=O)[C@H](CCC(=O)O)NC(=O)[C@H](CC(C)C)NC(=O)[C@H](CC(C)C)NC(=O)[C@@H](NC(=O)[C@H](CCC(N)=O)NC(=O)[C@H](CC(C)C)NC(=O)[C@H](CC(C)C)NC(=O)CNC(=O)[C@@H](NC(=O)[C@@H]1CCCN1C(=O)[C@@H](NC(=O)[C@H](CC(=O)O)NC(=O)[C@H](CC(C)C)NC(=O)[C@H](CO)NC(=O)[C@H](CC(C)C)NC(=O)[C@@H](NC(=O)[C@@H](N)[C@@H](C)CC)C(C)C)C(C)C)[C@@H](C)CC)[C@@H](C)CC)[C@@H](C)O)[C@@H](C)CC)C(=O)N[C@@H](C)C(=O)N[C@@H](CCC(=O)O)C(=O)N[C@H](C(N)=O)C(C)C [compound 55] (H-IVLSLDVPIGLLQILLEQARAQAARQQAK([AEEA-AEEA-γGlu-γGlu-C20 diacid])TNAEI[Nle]AEV-NH2) | EC50 (hCRHR1; library peptides, matched molecular pairs L vs Nle in position X^38, read-out: Potency hCRHR1 pEC50 (converted)): 251 nM; EC50 (hCRHR2; library peptides, matched molecular pairs L vs Nle in position X^38, read-out: Potency hCRHR2 pEC50 (converted)): 0.126 nM
4 |  |  | CCCC[C@H](NC(=O)[C@@H](NC(=O)[C@H](CCC(=O)O)NC(=O)C(C)(C)NC(=O)[C@H](CC(N)=O)NC(=O)[C@@H](NC(=O)[C@H](CCCCNC(=O)COCCOCCNC(=O)COCCOCCNC(=O)CC[C@H](NC(=O)CC[C@H](NC(=O)CCCCCCCCCCCCCCCCCCC(=O)O)C(=O)O)C(=O)O)NC(=O)[C@H](C)NC(=O)[C@H](CCC(N)=O)NC(=O)[C@H](CCC(=O)O)NC(=O)[C@H](CCCNC(=N)N)NC(=O)[C@H](C)NC(=O)[C@H](C)NC(=O)[C@H](CCCNC(=N)N)NC(=O)[C@H](C)NC(=O)[C@H](CCCNC(=N)N)NC(=O)[C@H](C)NC(=O)[C@H](CCC(N)=O)NC(=O)[C@H](C)NC(=O)[C@H](CC(C)C)NC(=O)[C@H](CC(C)C)NC(=O)[C@@H](NC(=O)[C@H](CCC(N)=O)NC(=O)[C@H](CC(C)C)NC(=O)[C@H](CC(C)C)NC(=O)CNC(=O)[C@@H](NC(=O)[C@@H]1CCCN1C(=O)[C@@H](NC(=O)[C@H](CC(=O)O)NC(=O)[C@H](CC(C)C)NC(=O)[C@H](CO)NC(=O)[C@H](CC(C)C)NC(=O)[C@@H](NC(=O)[C@@H](NC)[C@@H](C)CC)C(C)C)C(C)C)[C@@H](C)CC)[C@@H](C)CC)[C@@H](C)O)[C@@H](C)CC)C(=O)N[C@@H](C)C(=O)N[C@@H](CCC(=O)O)C(=O)N[C@H](C(N)=O)C(C)C [compound 196] (H-[NMeI]VLSLDVPIGLLQILLAQARARAAREQAK([AEEA-AEEA-γGlu-γGlu-C20 diacid])TN[Aib]EI[Nle]AEV-NH2) | EC50 (hCRHR1; Table 4, library peptides having X^38 = Nle, read-out: hCRHR1 pEC50 (converted)): 1000 nM; EC50 (hCRHR2; Table 4, library peptides having X^38 = Nle, read-out: hCRHR2 pEC50 (converted)): 0.0316 nM
5 | 794 | 0.501 | CC[C@H](C)[C@H](N)C(=O)N[C@H](C(=O)N[C@@H](CC(C)C)C(=O)N[C@@H](CO)C(=O)N[C@@H](CC(C)C)C(=O)N[C@@H](CC(=O)O)C(=O)N[C@H](C(=O)N1CCC[C@H]1C(=O)N[C@H](C(=O)NCC(=O)N[C@@H](CC(C)C)C(=O)N[C@@H](CC(C)C)C(=O)N[C@@H](CCC(N)=O)C(=O)N[C@H](C(=O)N[C@@H](CC(C)C)C(=O)N[C@@H](CC(C)C)C(=O)N[C@@H](CCC(=O)O)C(=O)N[C@@H](CCC(N)=O)C(=O)N[C@@H](C)C(=O)N[C@@H](CCCNC(=N)N)C(=O)N[C@@H](C)C(=O)N[C@@H](CCCNC(=N)N)C(=O)N[C@@H](C)C(=O)N[C@@H](CC(C)C)C(=O)N[C@@H](CCCNC(=N)N)C(=O)N[C@@H](CCC(=O)O)C(=O)N[C@@H](CCC(N)=O)C(=O)N[C@@H](C)C(=O)N[C@@H](CCCCNC(=O)COCCOCCNC(=O)COCCOCCNC(=O)CC[C@H](NC(=O)CC[C@H](NC(=O)CCCCCCCCCCCCCCCCCCC(=O)O)C(=O)O)C(=O)O)C(=O)N[C@H](C(=O)N[C@@H](CC(N)=O)C(=O)N[C@@H](C)C(=O)N[C@@H](CCC(=O)O)C(=O)N[C@H](C(=O)N[C@@H](CC(C)C)C(=O)N[C@@H](C)C(=O)N[C@@H](CCC(=O)O)C(=O)N[C@H](C(N)=O)C(C)C)[C@@H](C)CC)[C@@H](C)O)[C@@H](C)CC)[C@@H](C)CC)C(C)C)C(C)C [SEQ ID NO: 39] (H-IVLSLDVPIGLLQILLEQARARALREQAK([AEEA-AEEA-γGlu-γGlu-C20 diacid])TNAEILAEV-NH2) | 

Reference: patent publication EP4810052A2, “HCRHR2 SELECTIVE POLYPEPTIDES” (Gubra A/S, priority 2023, dated 2026)
